Experimental data reported in US20250206729A1, “DUAL RAF AND TUBULIN INHIBITORS AND METHODS OF USE THEREOF” (Deciphera Pharmaceuticals, LLC, priority 2023, published 2025).

Key:
[1] = biological target: T1, B-Raf kinase (SEQ ID NO: 1) (Homo sapiens, UniProt P15056); experiment: Biochemical assay for B-Raf (coupled pyruvate kinase/lactate dehydrogenase); settings: 1 mM ATP; read-out: BRAF (inhibition of biochemical activity, IC50)
T1 construct: GST (N); purchased Sigma

[2] = biological target: T2, C-Raf kinase (SEQ ID NO: 2) (Homo sapiens, UniProt P04049, Y340D/Y341D); experiment: Biochemical assay for C-Raf (coupled pyruvate kinase/lactate dehydrogenase); settings: 1 mM ATP; read-out: CRAF (inhibition of biochemical activity, IC50)
T2 construct: C-Raf residues 306-end; Y340D, Y341D with N-; GST (N); purchased Sigma
T2 sequence (P04049 307-648 Y340D/Y341D): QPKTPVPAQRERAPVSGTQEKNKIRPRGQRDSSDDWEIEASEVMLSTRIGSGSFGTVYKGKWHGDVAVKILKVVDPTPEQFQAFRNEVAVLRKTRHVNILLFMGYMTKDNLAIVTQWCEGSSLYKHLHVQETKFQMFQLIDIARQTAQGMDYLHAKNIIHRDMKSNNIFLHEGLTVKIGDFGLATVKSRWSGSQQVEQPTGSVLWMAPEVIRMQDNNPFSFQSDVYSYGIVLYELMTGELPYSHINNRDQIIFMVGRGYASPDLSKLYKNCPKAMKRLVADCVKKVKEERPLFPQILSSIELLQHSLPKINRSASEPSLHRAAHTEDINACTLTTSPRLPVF

MiaPaca-2 cells = experiment: MiaPaca-2 cell proliferation assay; format: cell-based; settings: Homo sapiens, MIA PaCa-2; 67-72 h incubation, resazurin; read-out: MiaPaca-2 (inhibition of cell proliferation, IC50)
HCT-116 cells = experiment: HCT-116 cell proliferation assay; format: cell-based; settings: Homo sapiens, HCT-116; 67 to 72 h incubation, resazurin; read-out: HCT-116 (inhibition of cell proliferation, IC50)
HPAF-II cells = experiment: HPAF-II cell proliferation assay; format: cell-based; settings: Homo sapiens, HPAF-II; 115 to 120 h incubation, resazurin; read-out: HPAF-II (inhibition of cell proliferation, IC50)
Pa16c cells = experiment: Pa16c cell proliferation assay; format: cell-based; settings: 67 to 72 h incubation, resazurin; read-out: Pa16c (inhibition of cell proliferation, IC50)

T1 sequence (P15056 416-766): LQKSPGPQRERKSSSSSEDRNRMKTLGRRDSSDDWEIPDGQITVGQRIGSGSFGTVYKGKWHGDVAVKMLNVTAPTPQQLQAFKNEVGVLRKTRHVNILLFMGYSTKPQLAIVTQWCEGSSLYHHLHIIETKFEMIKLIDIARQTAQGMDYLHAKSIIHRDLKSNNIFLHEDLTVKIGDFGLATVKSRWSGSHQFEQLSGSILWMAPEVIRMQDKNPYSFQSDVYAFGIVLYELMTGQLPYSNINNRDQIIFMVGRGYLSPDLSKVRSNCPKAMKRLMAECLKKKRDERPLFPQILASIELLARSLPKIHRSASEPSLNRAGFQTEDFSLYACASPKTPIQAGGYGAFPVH

SMILES	IC50 [1] [nM]	IC50 [2] [nM]	IC50 (MiaPaca-2 cells) [nM]	IC50 (HCT-116 cells) [nM]	IC50 (HPAF-II cells) [nM]	IC50 (Pa16c cells) [nM]
Cc1ccc(NC(=O)c2cc(C(F)(F)F)cnn2)cc1-c1nc(OCCO)cc(N2CCOCC2)n1 [Example 43]	1000 to 10000	1000 to 10000	< 100	100 to 500	< 100	100 to 500
Cc1ccc(NC(=O)c2cc(C(C)C)cnn2)cc1-c1cncc(N2CCOCC2)n1 [Example 56]	100 to 500	100 to 500	1000 to 10000	1000 to 10000	1000 to 10000	1000 to 10000
Cc1ccc(NC(=O)c2cncc(C3CC3)c2)cc1-c1cc(N[C@H](C)CO)nc(N2CCOCC2)c1 [Example 18]	< 100	< 100	100 to 500	100 to 500	100 to 500	1000 to 10000
Cc1ccc(NC(=O)c2cc(C3CC3)cnn2)cc1-c1cc(N2CCOCC2)ncn1 [Example 40]	100 to 500	500 to 1000	1000 to 10000	500 to 1000	500 to 1000	1000 to 10000
Cc1ccc(NC(=O)c2cc(C3CCC3)cnn2)cc1-c1cc(OCCO)nc(N2CCOCC2)c1 [Example 50]	< 100	< 100	< 100	< 100	< 100	< 100

Now from value to compound, other results behind:

IC50 [1] [nM]	IC50 [2] [nM]	IC50 (MiaPaca-2 cells) [nM]	IC50 (HCT-116 cells) [nM]	SMILES	IC50 (HPAF-II cells) [nM]	IC50 (Pa16c cells) [nM]
1000 to 10000	1000 to 10000	1000 to 10000	1000 to 10000	Cc1ccc(NC(=O)c2cc(Cl)cnn2)cc1-c1cncc(N2CCOCC2)n1 [Example 65]	1000 to 10000	1000 to 10000
100 to 500	< 100	< 100	< 100	Cc1ccc(NC(=O)c2cc(C3CC3)cnn2)cc1-c1ccnc(N2C[C@H]3C[C@@H]2CO3)c1 [Example 88]	< 100	< 100
< 100	< 100	< 100	< 100	Cc1ccc(NC(=O)c2cc(C(C)(F)F)cnn2)cc1-c1cc(N[C@H](C)CO)nc(N2CCOCC2)c1 [Example 66]	< 100	< 100
< 100	< 100	< 100	< 100	Cc1ccc(NC(=O)c2cc(C3CC3)cnn2)cc1-c1cc(N[C@H](C)CO)nc(N2CCOCC2)c1 [Example 70]	< 100	< 100
100 to 500	< 100	100 to 500	100 to 500	Cc1ccc(NC(=O)c2cc(Br)cnn2)cc1-c1cc(N[C@H](C)CO)nc(N2CCOCC2)c1 [Example 82]	1000 to 10000	1000 to 10000
100 to 500	< 100	1000 to 10000	1000 to 10000	Cc1ccc(NC(=O)c2cc(C(C)C)cnn2)cc1-c1cccc(N2CCOCC2)c1 [Example 76]	1000 to 10000	1000 to 10000
1000 to 10000	500 to 1000	100 to 500	500 to 1000	Cc1ccc(NC(=O)c2cc(C(N)=O)cnn2)cc1-c1cc(N[C@H](C)CO)nc(N2CCOCC2)c1 [Example 80]	1000 to 10000	1000 to 10000
100 to 500	< 100	1000 to 10000	1000 to 10000	Cc1ccc(NC(=O)c2cc(C(C)C)cnn2)cc1-c1cncc(N2CCOCC2)c1 [Example 79]	1000 to 10000	1000 to 10000
